Assay results: the NIST ThermoML archive (doi:10.1016/j.jct.2013.11.036)

Test: mn = molality of the nth substance listed, in mol/kg
Conditions: Liquid, Constant-volume piezometry

CCCO [propan-1-ol] + O
Conditions | mass density [kg/m3]
383.2 K, 3256 kPa, m1 = 7.407 | 879.4
383.2 K, 6865 kPa, m1 = 7.407 | 881.7
383.2 K, 12651 kPa, m1 = 7.407 | 885.3
393.03 K, 3256 kPa, m1 = 14.38 | 830.8
393.03 K, 6453 kPa, m1 = 14.38 | 833.7
393.03 K, 9885 kPa, m1 = 14.38 | 836.6
393.03 K, 13239 kPa, m1 = 14.38 | 838.9
394.81 K, 3472 kPa, m1 = 2.531 | 911.1
394.81 K, 7845 kPa, m1 = 2.531 | 913.4
394.81 K, 11768 kPa, m1 = 2.531 | 915.6
398.15 K, 5000 kPa, m1 = 0.869 | 932
398.15 K, 5000 kPa, m1 = 2.465 | 912.7
398.15 K, 10000 kPa, m1 = 0.869 | 934.6
398.15 K, 10000 kPa, m1 = 2.465 | 915.5
398.15 K, 20000 kPa, m1 = 0.869 | 939.5
398.15 K, 20000 kPa, m1 = 2.465 | 920.8
398.15 K, 30000 kPa, m1 = 0.869 | 943.9
398.15 K, 30000 kPa, m1 = 2.465 | 925.7
398.15 K, 40000 kPa, m1 = 0.869 | 948
398.15 K, 40000 kPa, m1 = 2.465 | 930.1
410.72 K, 3923 kPa, m1 = 56.35 | 771.4
410.72 K, 10787 kPa, m1 = 56.35 | 780.5
423.15 K, 5000 kPa, m1 = 0.869 | 909.2
423.15 K, 5000 kPa, m1 = 2.465 | 888.1
423.15 K, 10000 kPa, m1 = 0.869 | 912.1
423.15 K, 10000 kPa, m1 = 2.465 | 891.4
423.15 K, 20000 kPa, m1 = 0.869 | 917.6
423.15 K, 20000 kPa, m1 = 2.465 | 897.5
423.15 K, 30000 kPa, m1 = 0.869 | 922.6
423.15 K, 30000 kPa, m1 = 2.465 | 903.1
423.15 K, 40000 kPa, m1 = 0.869 | 927
423.15 K, 40000 kPa, m1 = 2.465 | 908
423.61 K, 3432 kPa, m1 = 14.38 | 797.3
423.61 K, 6453 kPa, m1 = 14.38 | 800.5
423.61 K, 10042 kPa, m1 = 14.38 | 804.1
423.61 K, 12827 kPa, m1 = 14.38 | 806.4
426.33 K, 3668 kPa, m1 = 2.531 | 880.3
426.33 K, 6865 kPa, m1 = 2.531 | 882.1
426.33 K, 10787 kPa, m1 = 2.531 | 884.4
427.06 K, 4001 kPa, m1 = 7.407 | 834.6
427.06 K, 6453 kPa, m1 = 7.407 | 836.9
427.06 K, 10375 kPa, m1 = 7.407 | 839.8
448.15 K, 5000 kPa, m1 = 0.869 | 883
448.15 K, 5000 kPa, m1 = 2.465 | 860.5
448.15 K, 10000 kPa, m1 = 0.869 | 886.4
448.15 K, 10000 kPa, m1 = 2.465 | 864.4
448.15 K, 20000 kPa, m1 = 0.869 | 892.7
448.15 K, 20000 kPa, m1 = 2.465 | 871.5
448.15 K, 30000 kPa, m1 = 0.869 | 898.3
448.15 K, 30000 kPa, m1 = 2.465 | 877.9
448.15 K, 40000 kPa, m1 = 0.869 | 903.2
448.15 K, 40000 kPa, m1 = 2.465 | 883.5
457.85 K, 3589 kPa, m1 = 14.38 | 754.1
457.85 K, 8198 kPa, m1 = 14.38 | 760.4
457.85 K, 13141 kPa, m1 = 14.38 | 766.1
463.81 K, 4805 kPa, m1 = 7.407 | 790.8
463.81 K, 7355 kPa, m1 = 7.407 | 793.5
463.81 K, 10787 kPa, m1 = 7.407 | 796.8
472.74 K, 3668 kPa, m1 = 2.531 | 826.7
472.74 K, 6531 kPa, m1 = 2.531 | 829.7
472.74 K, 10297 kPa, m1 = 2.531 | 832.6
486.26 K, 7512 kPa, m1 = 56.35 | 668.9
486.26 K, 11278 kPa, m1 = 56.35 | 680.2
500.33 K, 4982 kPa, m1 = 2.531 | 790
500.33 K, 7100 kPa, m1 = 2.531 | 792.6
500.33 K, 9316 kPa, m1 = 2.531 | 794.5
501.66 K, 4491 kPa, m1 = 14.38 | 685
501.66 K, 6943 kPa, m1 = 14.38 | 691.7
501.66 K, 10415 kPa, m1 = 14.38 | 699.7
501.66 K, 14298 kPa, m1 = 14.38 | 706.5
504.03 K, 4805 kPa, m1 = 7.407 | 730.7
504.03 K, 7669 kPa, m1 = 7.407 | 735.5
504.03 K, 9807 kPa, m1 = 7.407 | 739.6
504.03 K, 10866 kPa, m1 = 7.407 | 741.9
536.99 K, 10160 kPa, m1 = 56.35 | 558.4
536.99 K, 11140 kPa, m1 = 56.35 | 566.4
536.99 K, 11591 kPa, m1 = 56.35 | 573.2
537.32 K, 9885 kPa, m1 = 14.38 | 619.3
537.32 K, 10611 kPa, m1 = 14.38 | 628.3
537.32 K, 14298 kPa, m1 = 14.38 | 642.1
538.96 K, 7433 kPa, m1 = 2.531 | 728.6
538.96 K, 8649 kPa, m1 = 2.531 | 731.3
538.96 K, 11023 kPa, m1 = 2.531 | 736.1
543.97 K, 7335 kPa, m1 = 7.407 | 653.7
543.97 K, 10532 kPa, m1 = 7.407 | 666.5
543.97 K, 12749 kPa, m1 = 7.407 | 673.5
574.64 K, 11886 kPa, m1 = 56.35 | 322.1
574.64 K, 13082 kPa, m1 = 56.35 | 409.5
574.64 K, 14004 kPa, m1 = 56.35 | 441.1
574.64 K, 14509 kPa, m1 = 56.35 | 456.5
574.64 K, 15043 kPa, m1 = 56.35 | 468
575.95 K, 11768 kPa, m1 = 14.38 | 437.4
575.95 K, 11886 kPa, m1 = 14.38 | 475.9
575.95 K, 13317 kPa, m1 = 14.38 | 509.3
575.95 K, 13729 kPa, m1 = 14.38 | 521.1
577.86 K, 11717 kPa, m1 = 2.531 | 643.6
577.86 K, 11768 kPa, m1 = 2.531 | 652.5
577.86 K, 12160 kPa, m1 = 2.531 | 656.7
582.08 K, 12239 kPa, m1 = 7.407 | 540
582.08 K, 12866 kPa, m1 = 7.407 | 557.8
582.08 K, 13670 kPa, m1 = 7.407 | 567.6
582.08 K, 14377 kPa, m1 = 7.407 | 576.7
